{
  "source": "patent US20110178139A1",
  "about": "“Pyridoxamine for the Treatment of Diabetic Kidney Disease” (priority 2004, published 2011)",
  "key": {"[1]": {"system": "patients with type 1 and type 2 DM and overt nephropathy", "assay": "Randomized, double-blind, placebo-controlled, multicenter trial (PYR206) of PYR 50 mg b.i.d. for six months", "assay_type": "in vivo, human", "protocol": "A randomized, double-blind, placebo-controlled, multicenter trial which examined the safety profile of pyridoxamine dihydrochloride (PYR) in patients with type 1 and type 2 DM and overt nephropathy was conducted. 128 patients (48 type 1, 80 type 2) at 32 sites were randomized to receive either PYR 50 mg twice a day (b.i.d) or placebo for six months, 58 patients in each group completed the study. Groups were well matched at baseline for age, race, gender, blood pressure, hemoglobin AlC (HbAlC), and angiotensin converting enzyme inhibitor (ACEI)/angiotensin receptor blocker (ARB) use.\nBaseline characteristics of the patients included serum creatinine=1.27 mg/dL and urinary albumin excretion=868 mg/12 h in treatment, versus 1.33 mg/dL and 1055 mg/12 h in placebo groups (differences not significant, NS).\nIn addition, the urinary levels of TGF beta in the subjects completing the PYR206 study (combined type 1 and type 2 patients) were tested. This growth factor is an important and accepted marker of renal disease, since it initiates or controls a cascade of cellular changes (from diabetes and other diseases) that lead to mesangial expansion and eventually fibrosis in the kidney. […] This is strong evidence of the action of PYR in retarding or halting the nephropathy due to the diabetes."}, "[2]": {"system": "diabetic nephropathy patients", "assay": "Separate study: six months of escalating doses of pyridoxamine dihydrochloride in addition to standard of care", "assay_type": "in vivo, human", "protocol": "In a separate study, diabetic nephropathy patients received six months of treatment of escalating doses of pyridoxamine dihydrochloride (50 mg, 100 mg, and 250 mg), administered orally via capsules twice daily as follows:\n50 mg bid for 2 weeks, then if tolerated:\n10 mg bid for 2 weeks, then if tolerated:\nThe study drug was administered in addition to standard of care therapy. The patient population consisted of male and female patients between 18 and 70 years of age with diabetic nephropathy associated with type 1 or type 2 diabetes, serum creatinine of […], and macroalbuminuria confirmed with baseline urinary albumin excretion≧300 mg/24 his.\n84 patients received at least one dose of the study drug (57 pyridoxamine dihydrochloride; 27 placebo.\nBaseline characteristics of the patients included serum creatinine of 1.91 mg/dL and urinary albumin excretion of 957 mg/12 h in treatment, versus 1.95 mg/dL and 1224 mg/12 h in placebo groups."}, "[3]": {"conditions": "PYR 50 mg b.i.d., six months, no significant difference vs placebo"}, "[4]": {"conditions": "escalating doses 50, 100, 250 mg bid, six months, no significant difference vs placebo"}},
  "data": [
    {"smiles": "Cc1ncc(CO)c(CN)c1O.Cl.Cl", "note": "[PYR, pyridoxamine dihydrochloride]", "values": [
      {"measurement": "serious adverse events", "setting": "[1]; [3]", "value": 11, "unit": "%"},
      {"measurement": "study discontinuation due to AE's", "setting": "[1]; [3]", "value": 6, "unit": "%"},
      {"measurement": "treatment-related adverse events", "setting": "[1]; [3]", "value": 26, "unit": "%"},
      {"measurement": "scored neurotoxicity testing", "setting": "[1]; PYR 50 mg b.i.d., six months, vs placebo", "value": "No significant differences"},
      {"measurement": "mean rate of rise in serum creatinine", "setting": "[1]; all patients, 50 mg b.i.d., six months, p=0.0065 by ANOVA vs placebo", "value": 0.178, "unit": "mg/dL/yr"},
      {"measurement": "rise in mean urinary albumin excretion rate", "setting": "[1]; all patients, p=0.017, ANOVA vs placebo", "value": 122, "unit": "mg/12 h/yr"},
      {"measurement": "decrease in urinary TGF beta levels (pg TGF/mg Cr)", "setting": "[1]; combined type 1 and type 2 patients completing the study, six months, preliminary analysis, placebo increased 43%", "value": "about 24%"},
      {"measurement": "rise in albuminuria", "setting": "[1]; patients with baseline HbAlC over 7.275%, p=0.0282, ANOVA", "value": "reversed"},
      {"measurement": "rate of rise in serum creatinine", "setting": "[1]; patients with baseline serum creatinine ≧1.3 mg/dL, p<0.0001 vs placebo", "value": 0.17, "unit": "mg/dL/yr"},
      {"measurement": "rate of rise in serum creatinine", "setting": "[1]; type 2 patients taking ACE-I or ARB with baseline serum creatinine ≧1.3 mg/dL (predefined subgroup), p<0.0057 vs placebo", "value": 0.138, "unit": "mg/dL/yr"},
      {"measurement": "incidence of sensory system neurologic adverse events", "setting": "[1]; vs placebo (Table 5)", "value": "significantly reduced"},
      {"measurement": "serious adverse events", "setting": "[2]; escalating doses 50, 100, 250 mg bid, six months, higher rate than placebo (3.7%)", "value": 21.1, "unit": "%"},
      {"measurement": "study discontinuation due to AE's", "setting": "[2]; [4]", "value": 8.8, "unit": "%"},
      {"measurement": "treatment-related adverse events", "setting": "[2]; [4]", "value": 35.1, "unit": "%"},
      {"measurement": "rate of rise in serum creatinine", "setting": "[2]; type 2 patients taking ACE-I or ARB with baseline serum creatinine ≧1.3 mg/dL (predefined subgroup), p<0.0001 vs placebo", "value": 0.144, "unit": "mg/dL/yr"}
    ]}
  ]
}
